Measured values reported in patent US11851449B2, “Heterocyclic amide compounds having an RORvt inhibitory action” (TAKEDA PHARMACEUTICAL COMPANY LIMITED, priority 2013, dated 2023).
Where two headings read alike, the source gives them in different places.

Key:
[1] = target: T1, RORγt (Homo sapiens, UniProt P51449); assay: Cofactor recruitment test (Alpha Screen, biotinylated SRC-1 peptide); assay type: biochemical; details: read-out: signal value inhibitory rate (%) at test compound 1 μM
T1 sequence (P51449 1-497 isoform P51449-2): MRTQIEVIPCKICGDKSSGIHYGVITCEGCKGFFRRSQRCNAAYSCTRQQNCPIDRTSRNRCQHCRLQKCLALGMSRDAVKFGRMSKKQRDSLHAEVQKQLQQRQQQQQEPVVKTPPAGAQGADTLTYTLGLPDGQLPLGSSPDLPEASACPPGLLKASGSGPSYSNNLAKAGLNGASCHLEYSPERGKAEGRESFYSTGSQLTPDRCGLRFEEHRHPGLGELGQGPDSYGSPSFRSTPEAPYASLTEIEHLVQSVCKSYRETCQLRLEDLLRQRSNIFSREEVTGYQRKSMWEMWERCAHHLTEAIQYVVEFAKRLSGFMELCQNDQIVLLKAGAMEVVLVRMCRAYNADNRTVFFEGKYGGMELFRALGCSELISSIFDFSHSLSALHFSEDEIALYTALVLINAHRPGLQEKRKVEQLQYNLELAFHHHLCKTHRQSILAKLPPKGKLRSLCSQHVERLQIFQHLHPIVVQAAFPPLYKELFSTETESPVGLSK
Experimental: Cofactor Recruitment Test
Cofactor recruitment test was performed by Alpha Screen (Histidine Detection Kit, PerkinElmer) method. First, a test compound was diluted with an assay buffer (50 mM Tris-HCl (pH 7.5), 50 mM KCl, 1 mM DTT, 0.1% BSA) and added to a 384 well plate by 5 μL. […] The mixture was stood in a dark place for 1 hr, and the signal value was measured by Envision (PerkinElmer).

[2] = target: T1, RORγt; assay: RORγt binding test (TR-FRET, fluorescent-labeled cholesterol); details: read-out: binding inhibitory rate (%) of fluorescent-labeled cholesterol to RORγt at test compound 1 μM
Experimental: The binding activity of the test compound to RORγt was measured by a time resolved fluorescence resonance energy transfer method (TR-FRET) utilizing histidine-tagged RORγt, fluorescent-labeled cholesterol (BODIPY-cholesterol, AVIVA), and terbium-labeled anti-histidine tag antibody (Invitrogen). First, a test compound diluted with an assay buffer (20 mM Tris-HCl (pH 7.5), 100 mM NaCl, 1 mM DTT, 0.1% BSA) was added to a 384 well plate by 3 μL. Then, RORγt diluted with an assay buffer to 240 nM was added by 3 μL, after which fluorescent-labeled cholesterol diluted with the assay buffer to 12 μM was added by 3 μL, and the mixture was stood at room temperature for 20 min. Thereafter, a terbium-labeled anti-histidine tag antibody diluted with the assay buffer to 8 nM was added by 3 μL. The mixture was stood at room temperature for 20 min, and fluorescence intensity (excitation wavelength 320 nm, fluorescence wavelength 520 nm, delay time 100 microseconds) was measured by Envision (PerkinElmer).

[3] = target: T1, RORγt; assay: Jurkat reporter test (human IL-17 ROR response element luciferase reporter); assay type: cell-based; details: read-out: luminescence level inhibitory rate (%) at test compound 3 μM
Experimental: The Jurkat cells used for the reporter test were cultured in a culture medium (RPMI (Invitrogen), 10% FCS (AusGeneX), 100 U/mL penicillin, 100 μg/mL streptomycin). On the day of the test, 4×10^7 cells were recovered by a centrifugal operation (1000 rpm, 5 min.) and suspended in PBS (phosphate buffered saline) (Invitrogen). Thereafter, the cells were recovered again by a centrifugal operation, and suspended in 2 mL of R buffer (NEON transfection kit, Invitrogen). […] Gene transfer was performed by Electroporation apparatus (NEON, Invitrogen) under the conditions of pulse voltage 1350 V, interval 10 milliseconds, number of times 3. The cells after gene transfer were suspended in 40 mL of a reaction medium (RPMI, 10% Lipid reduced FCS (HyClone), 10 mM HEPES (pH 7.5), 100 U/mL penicillin, 100 μg/mL streptomycin, 5 μM lovastatin), and plated in a 96 well plate by 90 μL. A test compound diluted with the reaction medium was added by 10 μL, and the cells were cultured overnight in an incubator. Bright-Glo (Promega) was added by 100 μL, and the mixture was stirred at room temperature for 10 min, and the luminescence level was measured by Envision (PerkinElmer).

[4] = test compound 3 μM, Jurkat cells

SMILES: COCc1ccc(C(NC(=O)Cn2cnccc2=O)C(=O)Nc2cc(F)c([Si](C)(C)C)cc2F)cc1 (stereo not drawn) [Example 45, N-(2,5-difluoro-4-(trimethylsilyl)phenyl)-2-(4-(methoxymethyl)phenyl)-2-(((6-oxopyrimidin-1(6H)-yl)acetyl)amino)acetamide]
- inhibition at 1 µM [1]: 94.1%
- inhibition at 1 µM [2]: 102%
- inhibition at 3 µM ([3]; Jurkat): 101%

SMILES: COCc1ccc([C@@H](NC(=O)[C@@H]2CNC(=O)C2)C(=O)Nc2cc(F)c([Si](C)(C)C)cc2F)cc1 [Example 51, (3S)—N-((1R)-2-((2,5-difluoro-4-(trimethylsilyl)phenyl)amino)-1-(4-(methoxymethyl)phenyl)-2-oxoethyl)-5-oxopyrrolidine-3-carboxamide]
- inhibition at 1 µM [1]: 97.3%
- inhibition at 1 µM [2]: 102%
- inhibition at 3 µM ([3]; Jurkat): 98%

SMILES: COc1ccc([C@@H](NC(=O)c2cc(O)no2)C(=O)Nc2ccc([Si](C)(C)C)c(F)c2)cc1 [Example 83, N-((1R)-2-((3-fluoro-4-(trimethylsilyl)phenyl)amino)-1-(4-methoxyphenyl)-2-oxoethyl)-3-hydroxy-1,2-oxazole-5-carboxamide]
- inhibition at 1 µM [1]: 86.5%
- inhibition at 1 µM [2]: 100%
- inhibition at 3 µM ([3]; Jurkat): 63.2%

SMILES: COCc1ccc([C@@H](NC(=O)Cn2cnccc2=O)C(=O)Nc2ccc(C(C)(C)C)c(F)c2)cc1 [Example 100, (2R)—N-(4-tert-butyl-3-fluorophenyl)-2-(4-(methoxymethyl)phenyl)-2-(((6-oxopyrimidin-1(6H)-yl)acetyl)amino)acetamide]
- inhibition at 1 µM [1]: 86.3%
- inhibition at 1 µM [2]: 99.6%
- inhibition at 3 µM [3, 4]: 99.4%

SMILES: COCc1ccc(C(NC(=O)Cc2cnn(C)c2)C(=O)Nc2ccc([Si](C)(C)C)cc2)cc1 (stereo not drawn) [Example 22, 2-(4-(methoxymethyl)phenyl)-2-(((1-methyl-1H-pyrazol-4-yl)acetyl)amino)-N-(4-(trimethylsilyl)phenyl)acetamide]
- inhibition at 1 µM [1]: 90.6%
- inhibition at 1 µM [2]: 101%
- inhibition at 3 µM ([3]; Jurkat): 97.2%

SMILES: COc1ccc(C(NC(=O)C2CNC(=O)C2)C(=O)Nc2cc(F)c([Si](C)(C)C)cc2F)cc1 (stereo not drawn) [Example 42, N-(2-((2,5-difluoro-4-(trimethylsilyl)phenyl)amino)-1-(4-methoxyphenyl)-2-oxoethyl)-5-oxopyrrolidine-3-carboxamide]
- inhibition at 1 µM [1]: 88.5%
- inhibition at 1 µM [2]: 102%
- inhibition at 3 µM ([3]; Jurkat): 99.1%

SMILES: COCc1ccc(C(NC(=O)Cc2cc(O)no2)C(=O)Nc2cc(F)c([Si](C)(C)C)c(F)c2)cc1 (stereo not drawn) [Example 39, N-(3,5-difluoro-4-(trimethylsilyl)phenyl)-2-(((3-hydroxy-1,2-oxazol-5-yl)acetyl)amino)-2-(4-(methoxymethyl)phenyl)acetamide]
- inhibition at 1 µM [1]: 99.6%
- inhibition at 1 µM [2]: 103%
- inhibition at 3 µM ([3]; Jurkat): 100%

SMILES: COCc1ccc(C(NC(=O)Cn2cnccc2=O)C(=O)Nc2cc(F)c([Si](C)(C)C)c(F)c2)cc1 (stereo not drawn) [Example 40, N-(3,5-difluoro-4-(trimethylsilyl)phenyl)-2-(4-(methoxymethyl)phenyl)-2-(((6-oxopyrimidin-1(6H)-yl)acetyl)amino)acetamide]
- inhibition at 1 µM [1]: 98.7%
- inhibition at 1 µM [2]: 101%
- inhibition at 3 µM ([3]; Jurkat): 100%

SMILES: COCc1ccc(C(NC(=O)Cn2ncc3ccccc32)C(=O)Nc2cc(F)c([Si](C)(C)C)cc2F)cc1 (stereo not drawn) [Example 47, N-(2,5-difluoro-4-(trimethylsilyl)phenyl)-2-((1H-indazol-1-ylacetyl)amino)-2-(4-(methoxymethyl)phenyl)acetamide]
- inhibition at 1 µM [1]: 92.4%
- inhibition at 1 µM [2]: 100%
- inhibition at 3 µM ([3]; Jurkat): 100%

SMILES: COCc1ccc([C@H](C(=O)Nc2cc(F)c([Si](C)(C)C)c(F)c2)N(C)C(=O)c2cc(O)no2)cc1 [Example 77, N-((1R)-2-((3,5-difluoro-4-(trimethylsilyl)phenyl)amino)-1-(4-(methoxymethyl)phenyl)-2-oxoethyl)-3-hydroxy-N-methyl-1,2-oxazole-5-carboxamide]
- inhibition at 1 µM [1]: 97.3%
- inhibition at 1 µM [2]: 103%
- inhibition at 3 µM ([3]; Jurkat): 99.7%

SMILES: COCc1ccc([C@@H](NC(=O)CCC#N)C(=O)Nc2cc(F)c([Si](C)(C)C)c(F)c2)cc1 [Example 73, 3-cyano-N-((1R)-2-((3,5-difluoro-4-(trimethylsilyl)phenyl)amino)-1-(4-(methoxymethyl)phenyl)-2-oxoethyl)propanamide]
- inhibition at 1 µM [1]: 96.7%
- inhibition at 1 µM [2]: 103%
- inhibition at 3 µM ([3]; Jurkat): 97.9%

SMILES: CC(C)(C)c1ccc(NC(=O)[C@H](NC(=O)[C@@H]2CNC(=O)C2)C2CCC(F)(F)CC2)cc1F [Example 7, (3S)—N-((1R)-2-((4-tert-butyl-3-fluorophenyl)amino)-1-(4,4-difluorocyclohexyl)-2-oxoethyl)-5-oxopyrrolidine-3-carboxamide]
- inhibition at 1 µM [1]: 56.9%
- inhibition at 1 µM [2]: 102%
- inhibition at 3 µM [3, 4]: 97%

SMILES: COCc1ccc([C@@H](NC(=O)Cn2ccc(=O)cn2)C(=O)Nc2ccc([Si](C)(C)C)c(F)c2)cc1 [Example 63, (2R)—N-(3-fluoro-4-(trimethylsilyl)phenyl)-2-(4-(methoxymethyl)phenyl)-2-(((4-oxopyridazin-1(4H)-yl)acetyl)amino)acetamide]
- inhibition at 1 µM [1]: 95.1%
- inhibition at 1 µM [2]: 103%
- inhibition at 3 µM ([3]; Jurkat): 99.7%

SMILES: CC(C)(C)c1ccc(NC(=O)[C@H](NC(=O)CC(F)(F)F)C2CCOCC2)cc1Cl [Example 9, N-((1R)-2-((4-tert-butyl-3-chlorophenyl)amino)-2-oxo-1-(tetrahydro-2H-pyran-4-yl)ethyl)-3,3,3-trifluoropropanamide]
- inhibition at 1 µM [1]: 29.7%
- inhibition at 1 µM [2]: 100%
- inhibition at 3 µM [3, 4]: 97.6%

SMILES: COCc1ccc([C@@H](NC(=O)[C@@H]2CNC(=O)C2)C(=O)Nc2cc(F)c([Si](C)(C)C)c(F)c2)cc1 [Example 52, (3S)—N-((1R)-2-((3,5-difluoro-4-(trimethylsilyl)phenyl)amino)-1-(4-(methoxymethyl)phenyl)-2-oxoethyl)-5-oxopyrrolidine-3-carboxamide]
- inhibition at 1 µM [1]: 98.7%
- inhibition at 1 µM [2]: 102%
- inhibition at 3 µM ([3]; Jurkat): 100%

SMILES: CCNC(=O)N[C@@H](C(=O)Nc1ccc([Si](C)(C)C)c(F)c1)c1ccc(COC)cc1 [Example 90, (2R)-2-((ethylcarbamoyl)amino)-N-(3-fluoro-4-(trimethylsilyl)phenyl)-2-(4-(methoxymethyl)phenyl)acetamide]
- inhibition at 1 µM [1]: 96%
- inhibition at 1 µM [2]: 102%
- inhibition at 3 µM ([3]; Jurkat): 101%

SMILES: COc1ccc(C(NC(=O)Cc2ccc(=O)[nH]c2)C(=O)Nc2ccc([Si](C)(C)C)cc2)cc1 (stereo not drawn) [Example 16, 2-(4-methoxyphenyl)-2-(((6-oxo-1,6-dihydropyridin-3-yl)acetyl)amino)-N-(4-(trimethylsilyl)phenyl)acetamide]
- inhibition at 1 µM [1]: 81.9%
- inhibition at 1 µM [2]: 102%
- inhibition at 3 µM ([3]; Jurkat): 93.2%

SMILES: COCc1ccc([C@@H](NC(=O)CCS(C)(=O)=O)C(=O)Nc2ccc([Si](C)(C)C)c(F)c2)cc1 [Example 80, N-((1R)-2-((3-fluoro-4-(trimethylsilyl)phenyl)amino)-1-(4-(methoxymethyl)phenyl)-2-oxoethyl)-3-(methylsulfonyl)propanamide]
- inhibition at 1 µM [1]: 93.8%
- inhibition at 1 µM [2]: 102%
- inhibition at 3 µM ([3]; Jurkat): 100%
